Assay [1] concerns HepG2 cell line. The experiment in a line: In vitro anti-proliferative MTT assay, HepG2. Format: cell-based, human. The source says: (§1) The cytotoxicity results were obtained as median growth inhibitory concentration (IC50).
(§2) MTT assay protocol. This method was applied in accordance with the comprehensive description in Supplementary data. […]
(§3) 5 Raw data of cytotoxity and VEGFR -2 assay […]
(§4) Experimental of biological testing
(§5) 1. In vitro anti-proliferative activity
(§6) MTT assay protocol was applied to assess the anti-proliferative activity of the synthesized compounds. Two human cancer cell lines (MCF-7 and HepG-2) and one normal cell line (WI-38) were used in this test. At first, the cell lines were cultured in RPMI -1640 medium with 10% fetal bovine serum. Antibiotics (100 units/ml penicillin and100 µg/ml streptomycin ) were added at 37 °C in a 5% CO2 incubator. The cell lines were seeded in a 96-well plate at a density of 1.0 x 10^4 cells / well at 37 °C for 24 h under 5% CO2. After incubation, the cells were treated with different […]
(§7) concentration of the synthesized compounds and incubated for 24 h. After 24 h of drug treatment, 20 µl of MTT solution at 5mg/ml was added and incubated for 4 h. Dimethyl sulfoxide (DMSO) in volume of 100 µl was added into each well to dissolve the purple formazan formed. The colorimetric assay was measured and recorded at absorbance of 570 nm using a plate reader (EXL 800, USA). The relative cell viability in percentage was calculated as (A570 of treated samples/A570 of untreated sample) X 100. […]

For assay [2], the system named is MCF-7 cell line. Description: In vitro anti-proliferative MTT assay, MCF-7. Format: cell-based, human.
Source text: as §1, §2, §3, §4, §5, §6, §7
Background: Tetrazolium dyes change colour on reduction, which living cells bring about.

The target in assay [3] is T1, VEGFR-2 (Homo sapiens, UniProt P35968).
T1 construct: purchased
The experiment in a line: In vitro VEGFR-2 kinase assay (ELISA kit). As to conditions: for IC50: ELISA kit; for HillSlope best-fit value, VEGFR-2 / LogIC50 best-fit value, VEGFR-2: supplement raw data, curve fit. Format: biochemical. The protocol:
The assay was applied by ELISA kits in accordance with the comprehensive description in[18]^,[33] as described in Supplementary data. […]
2. In vitro VEGFR-2 kinase assay
All the synthesized compounds were tested for its inhibitory activity against VEGFR-2. Human VEGFR-2 ELISA kit (Enzyme-Linked Immunosorbent Assay) was utilized in this test. At first, specific antibody for VEGFR-2 was seeded on a 96-well plate and 100 μL of the standard solution or the tested compound was added, all were incubated at room temperature for 2.5 h. Then washed, 100 μL of the prepared biotin antibody was added, then incubated at room temperature for additional 1 h. and washed. Then, 100 μL of streptavidin solution was added and incubated for 45 min. at room temperature. Washed again, 100 μL of TMB Substrate reagent was added and incubated for 30 min. at room temperature. 50 μL of the stop solution was added, then read at 450 […]
nm immediately. […]
(ELISA stands for enzyme-linked immunosorbent assay.)

Assay [4] has as its system WI-38 cell line. The experiment in a line: In vitro cytotoxicity against normal cell line (MTT). Format: cell-based, human. Also on record: LogIC50 best-fit value, WI-38: unit not given here. To be noted: for IC50: WI-38, normal human lung cell line, MTT; for HillSlope best-fit value, WI-38 / LogIC50 best-fit value, WI-38: supplement raw data, dose-response curve fit.
Source text: […]. Such values were very high in comparison to the corresponding values on cancer cell lines, which reflect high safety profile of the tested candidates towards normal cell lines.
as §2, §3, §4, §5, §6, §7

[5] abbreviates: Homo sapiens, HepG2, 24 h, MTT, 24 h treatment, mean of three experiments, read-out: In vitro IC50 HepG2.
Setting [6] is: Homo sapiens, HepG2, supplement raw data, dose-response curve fit, read-out: LogIC50 best-fit value, HepG2 (converted).
Setting [7] is: Homo sapiens, MCF7, 24 h, MTT, 24 h treatment, mean of three experiments, read-out: In vitro IC50 MCF-7.
[8] abbreviates: Homo sapiens, MCF7, supplement raw data, dose-response curve fit, read-out: LogIC50 best-fit value, MCF-7 (converted).
The mark [9] stands for this setting: Homo sapiens, HepG2, supplement raw data, dose-response curve fit, read-out: IC50 best-fit value, HepG2.

Molecules are shown by their SMILES. Read-outs that look alike come from different tables or passages of the source.

T1 sequence (P35968 20-1356): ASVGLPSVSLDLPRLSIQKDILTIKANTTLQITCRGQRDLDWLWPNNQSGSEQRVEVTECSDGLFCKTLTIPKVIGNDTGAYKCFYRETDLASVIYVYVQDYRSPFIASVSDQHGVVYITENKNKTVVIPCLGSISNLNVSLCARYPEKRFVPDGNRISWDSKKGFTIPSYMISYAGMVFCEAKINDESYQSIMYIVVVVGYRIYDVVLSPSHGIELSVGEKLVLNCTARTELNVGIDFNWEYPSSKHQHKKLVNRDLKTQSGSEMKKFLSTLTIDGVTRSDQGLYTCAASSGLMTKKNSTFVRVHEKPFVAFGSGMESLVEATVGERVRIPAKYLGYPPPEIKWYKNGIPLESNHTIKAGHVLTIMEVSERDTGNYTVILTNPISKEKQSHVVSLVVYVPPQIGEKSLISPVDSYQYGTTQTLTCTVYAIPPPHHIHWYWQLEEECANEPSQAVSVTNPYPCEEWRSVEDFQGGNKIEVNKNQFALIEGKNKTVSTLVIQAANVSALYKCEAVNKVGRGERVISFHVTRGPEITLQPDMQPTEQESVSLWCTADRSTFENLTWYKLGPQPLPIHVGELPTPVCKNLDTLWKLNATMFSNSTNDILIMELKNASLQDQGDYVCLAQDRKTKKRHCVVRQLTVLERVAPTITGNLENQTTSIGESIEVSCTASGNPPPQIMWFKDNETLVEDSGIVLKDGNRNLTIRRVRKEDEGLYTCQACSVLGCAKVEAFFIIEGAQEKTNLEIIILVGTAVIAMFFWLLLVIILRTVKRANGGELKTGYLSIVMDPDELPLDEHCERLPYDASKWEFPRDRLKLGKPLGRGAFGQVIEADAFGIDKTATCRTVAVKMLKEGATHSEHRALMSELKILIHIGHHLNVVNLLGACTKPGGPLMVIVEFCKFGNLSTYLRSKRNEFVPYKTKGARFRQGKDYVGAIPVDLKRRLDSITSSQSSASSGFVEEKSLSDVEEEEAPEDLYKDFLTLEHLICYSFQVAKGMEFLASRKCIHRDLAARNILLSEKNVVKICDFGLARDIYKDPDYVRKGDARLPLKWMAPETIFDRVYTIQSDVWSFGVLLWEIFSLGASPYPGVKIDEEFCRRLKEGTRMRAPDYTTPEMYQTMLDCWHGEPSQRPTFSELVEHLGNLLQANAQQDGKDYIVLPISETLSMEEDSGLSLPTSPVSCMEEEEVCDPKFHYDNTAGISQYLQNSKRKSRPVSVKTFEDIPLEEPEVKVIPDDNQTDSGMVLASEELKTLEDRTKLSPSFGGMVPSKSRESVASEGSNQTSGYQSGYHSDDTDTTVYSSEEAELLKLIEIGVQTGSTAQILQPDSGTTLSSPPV

For the molecule `O=C(CSc1nc2ccccc2o1)Nc1ccc(C(=O)NC2CCCC2)cc1` [Compound 12a, 4–(2-(Benzo[d]oxazol-2-ylthio)acetamido)-N-cyclopentylbenzamide], the IC50 was 38.8 ± 3.2 µM in assay [1] (setting [5]), 38.8 µM in assay [1] (setting [6]), 33.3 ± 2.9 µM in assay [2] (setting [7]) and 33.3 µM in assay [2] (setting [8]).

As for `O=C(CSc1nc2cc(Cl)ccc2o1)Nc1ccc(C(=O)NC2CCCC2)cc1` [Compound 12b, 4–(2-((5-Chlorobenzo[d]oxazol-2-yl)thio)acetamido)-N-cyclopentylbenzamide], the IC50 in assay [1] (setting [5]) is 64.2 ± 6.1 µM; in assay [1] (setting [6]), 64.1 µM; in assay [2] (setting [7]), 77 ± 7.3 µM; in assay [2] (setting [8]), 77.1 µM.

As to `Cc1ccc2oc(SCC(=O)Nc3ccc(C(=O)NC4CCCC4)cc3)nc2c1` [Compound 12c, N-Cyclopentyl-4–(2-((5-methylbenzo[d]oxazol-2-yl)thio)acetamido)benzamide], the IC50 was 74.3 ± 6.8 µM in assay [1] (setting [5]), 74.3 µM in assay [1] (setting [6]), 36.7 ± 3.3 µM in assay [2] (setting [7]) and 36.7 µM in assay [2] (setting [8]).

Regarding `CC(C)(C)NC(=O)c1ccc(NC(=O)CSc2nc3ccccc3o2)cc1` [Compound 12d, 4–(2-(Benzo[d]oxazol-2-ylthio)acetamido)-N-(tert-butyl)benzamide], the IC50 in assay [1] (setting [5]) was 23.6 ± 2.1 µM; in assay [1] (setting [6]) it was 23.6 µM; in assay [2] (setting [7]), 44.1 ± 3.8 µM; in assay [2] (setting [8]) it was 44.1 µM; in assay [3] it was 0.195 µM; in assay [4] it was 99.4 µM. In addition, the “HillSlope best-fit value, VEGFR-2” value in assay [3] is on record as -0.4166. Besides, in assay [3], the “LogIC50 best-fit value, VEGFR-2” value is recorded as 2.289 Log (nM). Further, the “HillSlope best-fit value, WI-38” value in assay [4] is recorded as -0.3751. Besides, the “LogIC50 best-fit value, WI-38” value in assay [4] amounted to 1.997.

`CC(C)(C)NC(=O)c1ccc(NC(=O)CSc2nc3cc(Cl)ccc3o2)cc1` [Compound 12e, N-(Tert-butyl)-4–(2-((5-chlorobenzo[d]oxazol-2-yl)thio)acetamido)benzamide]: the IC50 in assay [1] (setting [5]) is 71.6 ± 6.7 µM; in assay [1] (setting [6]), 71.6 µM; in assay [2] (setting [7]), 62.3 ± 5.8 µM; in assay [2] (setting [8]), 62.2 µM.

On to `Cc1ccc2oc(SCC(=O)Nc3ccc(C(=O)NC(C)(C)C)cc3)nc2c1` [Compound 12f, N-(Tert-butyl)-4–(2-((5-methylbenzo[d]oxazol-2-yl)thio)acetamido)benzamide], for which the IC50 in assay [1] (setting [5]) is 37 ± 3.4 µM; in assay [1] (setting [6]), 37 µM; in assay [2] (setting [7]), 22.5 ± 1.8 µM; in assay [2] (setting [8]) it was 22.5 µM; in assay [3], 0.265 µM. Further, the “HillSlope best-fit value, VEGFR-2” value in assay [3] is -0.3283. Besides, the “LogIC50 best-fit value, VEGFR-2” value in assay [3] is 2.423 Log (nM).

`COc1cccc(NC(=O)c2ccc(NC(=O)CSc3nc4ccccc4o3)cc2)c1` [Compound 12g, 4–(2-(Benzo[d]oxazol-2-ylthio)acetamido)-N-(3-methoxyphenyl)benzamide]: the IC50 in assay [1] (setting [5]) is 36.7 ± 2.9 µM; in assay [1] (setting [6]), 36.6 µM; in assay [2] (setting [7]), 53 ± 5.1 µM; in assay [2] (setting [8]) it was 53 µM.

For the molecule `COc1cccc(NC(=O)c2ccc(NC(=O)CSc3nc4cc(Cl)ccc4o3)cc2)c1` [Compound 12h, 4–(2-((5-Chlorobenzo[d]oxazol-2-yl)thio)acetamido)-N-(3-methoxyphenyl)benzamide], the IC50 is 102 ± 8.5 µM in assay [1] (setting [5]), 102 µM in assay [1] (setting [6]), 85.6 ± 8.2 µM in assay [2] (setting [7]) and 85.7 µM in assay [2] (setting [8]).

For `COc1cccc(NC(=O)c2ccc(NC(=O)CSc3nc4cc(C)ccc4o3)cc2)c1` [Compound 12i, N-(3-Methoxyphenyl)-4–(2-((5-methylbenzo[d]oxazol-2-yl)thio)acetamido)benzamide], the IC50 was 27.3 ± 2.2 µM in assay [1] (setting [5]); 27.3 µM in assay [1] (setting [6]); 28 ± 2.1 µM in assay [2] (setting [7]); 28 µM in assay [2] (setting [8]); 0.155 µM in assay [3]; 76.8 µM in assay [4]. Moreover, the “HillSlope best-fit value, VEGFR-2” value in assay [3] was -0.3818. Also, the “LogIC50 best-fit value, VEGFR-2” value in assay [3] is listed as 2.190 Log (nM). In assay [4], the “HillSlope best-fit value, WI-38” value is reported as -0.4944. In addition, in assay [4], the “LogIC50 best-fit value, WI-38” value is listed as 1.885.

`O=C(CSc1nc2ccccc2o1)Nc1ccc(C(=O)Nc2cccc(Cl)c2)cc1` [Compound 12j, 4–(2-(Benzo[d]oxazol-2-ylthio)acetamido)-N-(3-chlorophenyl)benzamide]: the IC50 in assay [1] (setting [5]) is 33.6 µM; in assay [1] (setting [6]), 50.9 µM; in assay [1] (MTT, 24 h treatment, mean of three experiments, read-out: In vitro IC50 HepG2), 50.9 ± 4.6 µM; in assay [2] (setting [7]), 50.9 µM; in assay [2] (setting [8]) it was 33.6 µM; in assay [2] (MTT, 24 h treatment, mean of three experiments, read-out: In vitro IC50 MCF-7), 33.6 ± 2.8 µM.

`O=C(CSc1nc2cc(Cl)ccc2o1)Nc1ccc(C(=O)Nc2cccc(Cl)c2)cc1` [Compound 12k, 4–(2-((5-Chlorobenzo[d]oxazol-2-yl)thio)acetamido)-N-(3-chlorophenyl)benzamide]: the IC50 in assay [1] (setting [5]) is 28.4 ± 2.5 µM; in assay [1] (setting [6]), 28.4 µM; in assay [2] (setting [7]), 86.6 ± 7.8 µM; in assay [2] (setting [8]) it was 86.7 µM.

Take `O=C(CSc1nc2ccccc2o1)Nc1ccc(C(=O)NNC(=O)c2cccc(Cl)c2)cc1` [Compound 13a, 2-(Benzo[d]oxazol-2-ylthio)-N-(4–(2-(3-chlorobenzoyl)hydrazine-1-carbonyl)phenyl)-acetamide]: the IC50 in assay [1] (setting [6]) is 25.5 µM. Also, in assay [2] (setting [8]), the IC50 is 32.4 µM. Moreover, in assay [3], the IC50 was 0.268 µM; the “HillSlope best-fit value, VEGFR-2” value is recorded as -0.5089; the “LogIC50 best-fit value, VEGFR-2” value was 2.428 Log (nM).

Regarding `O=C(CSc1nc2cc(Cl)ccc2o1)Nc1ccc(C(=O)NNC(=O)c2cccc(Cl)c2)cc1` [Compound 13b, 2-((5-Chlorobenzo[d]oxazol-2-yl)thio)-N-(4–(2-(3-chlorobenzoyl)hydrazine-1-carbonyl)-phenyl)acetamide], the IC50 in assay [1] (setting [5]) was 42.1 ± 3.8 µM; in assay [1] (setting [6]) it was 42.1 µM; in assay [2] (setting [7]), 26.3 ± 2.2 µM; in assay [2] (setting [8]), 26.3 µM.

As for `Cc1ccc2oc(SCC(=O)Nc3ccc(C(=O)NNC(=O)c4cccc(Cl)c4)cc3)nc2c1` [Compound 13c, N-(4–(2-(3-Chlorobenzoyl)hydrazine-1-carbonyl)phenyl)-2-((5-methylbenzo[d]oxazol-2-yl)thio)acetamide], the IC50 in assay [1] (setting [5]) was 24.2 ± 2.1 µM; in assay [1] (setting [9]), 24.4 µM; in assay [1] (setting [6]), 24.4 µM; in assay [2] (setting [7]) it was 53.1 ± 3.7 µM; in assay [2] (setting [8]) it was 53.1 µM.

`CNC(=O)c1cc(Oc2ccc(NC(=O)Nc3ccc(Cl)c(C(F)(F)F)c3)cc2)ccn1` [Sorafenib, sorafenib, reference compound]: the IC50 was 5.57 ± 0.4 µM in assay [1] (setting [5]); 5.57 µM in assay [1] (setting [9]); 5.57 µM in assay [1] (setting [6]); 6.46 ± 0.3 µM in assay [2] (setting [7]); 6.46 µM in assay [2] (Homo sapiens, MCF7, supplement raw data, dose-response curve fit, read-out: IC50 best-fit value, MCF-7); 6.46 µM in assay [2] (setting [8]). In assay [4], this molecule had an IC50 of 22.1 µM. For the same molecule, the “HillSlope best-fit value, WI-38” value in assay [4] is on record as -0.4247. For the same molecule, the “LogIC50 best-fit value, WI-38” value in assay [4] stood at 1.344.
